{"source": "ChEMBL document CHEMBL1149805", "about": "“Antibacterial activity of a novel series of 3-bromo-4-(1H-3-indolyl)-2,5-dihydro-1H-2,5-pyrroledione derivatives--an extended structure-activity relationship study” (Eur J Med Chem, 2008)", "key": {"Staphylococcus aureus": {"tested_on": "Staphylococcus aureus", "assay": "Antibacterial activity against Staphylococcus aureus 134/93 after 24 hrs by broth microdilution method", "assay_type": "functional", "settings": "for MIC: Staphylococcus aureus, 134/93, 24 h"}, "[1]": {"tested_on": "Mycolicibacterium smegmatis", "assay": "Antibacterial activity against Mycobacterium smegmatis SG987 after 24 hrs by broth microdilution method", "assay_type": "functional", "settings": "for MIC: Mycolicibacterium smegmatis, SG987, 24 h"}, "Escherichia coli": {"tested_on": "Escherichia coli", "assay": "Antibacterial activity against Escherichia coli after 24 hrs by broth microdilution method", "assay_type": "functional, organism-based"}, "Candida albicans": {"tested_on": "Candida albicans", "assay": "Antibacterial activity against Candida albicans after 24 hrs by broth microdilution method", "assay_type": "functional, organism-based"}, "[2]": {"assay": "Partition coefficient, log P of the compound", "assay_type": "physicochemical", "settings": "octanol/water"}}, "note": "Calls of active or inactive are those of the source. The rule behind the calls is not given here.", "data": [{"smiles": "CCOc1ccc2[nH]c(-c3ccc(OC)cc3)c(C3=C(Br)C(=O)NC3=O)c2c1", "values": [{"measurement": "-logMIC", "setting": "Staphylococcus aureus", "result": 5.7}, {"measurement": "MIC", "setting": "Staphylococcus aureus", "result": 2, "unit": "µM"}, {"measurement": "-logMIC", "setting": "[1]", "result": 4.8}, {"measurement": "MIC", "setting": "[1]", "result": 14.1, "unit": "µM"}, {"measurement": "Activity", "setting": "Escherichia coli", "result": "inactive"}, {"measurement": "Activity", "setting": "Candida albicans", "result": "inactive"}, {"measurement": "logP", "setting": "[2]", "result": 2.77}]}, {"smiles": "CCCCCc1ccc2[nH]c(-c3ccccc3)c(C3=C(Br)C(=O)NC3=O)c2c1", "values": [{"measurement": "-logMIC", "setting": "Staphylococcus aureus", "result": 6}, {"measurement": "MIC", "setting": "Staphylococcus aureus", "result": 0.91, "unit": "µM"}, {"measurement": "-logMIC", "setting": "[1]", "result": 5.5}, {"measurement": "MIC", "setting": "[1]", "result": 3.6, "unit": "µM"}, {"measurement": "Activity", "setting": "Escherichia coli", "result": "inactive"}, {"measurement": "Activity", "setting": "Candida albicans", "result": "inactive"}, {"measurement": "logP", "setting": "[2]", "result": 4.07}]}, {"smiles": "Cc1ccc(NC(=O)CCCc2[nH]c3ccccc3c2C2=C(Br)C(=O)NC2=O)cc1", "values": [{"measurement": "-logMIC", "setting": "Staphylococcus aureus", "result": 5.8}, {"measurement": "MIC", "setting": "Staphylococcus aureus", "result": 1.58, "unit": "µM"}, {"measurement": "-logMIC", "setting": "[1]", "result": 4.6}, {"measurement": "MIC", "setting": "[1]", "result": 27, "unit": "µM"}, {"measurement": "Activity", "setting": "Escherichia coli", "result": "inactive"}, {"measurement": "Activity", "setting": "Candida albicans", "result": "inactive"}, {"measurement": "logP", "setting": "[2]", "result": 2.56}]}, {"smiles": "CCCCc1ccc2[nH]c(-c3ccccc3)c(C3=C(Br)C(=O)NC3=O)c2c1", "values": [{"measurement": "-logMIC", "setting": "Staphylococcus aureus", "result": 6.6}, {"measurement": "MIC", "setting": "Staphylococcus aureus", "result": 0.24, "unit": "µM"}, {"measurement": "-logMIC", "setting": "[1]", "result": 5.7}, {"measurement": "MIC", "setting": "[1]", "result": 1.9, "unit": "µM"}, {"measurement": "Activity", "setting": "Escherichia coli", "result": "inactive"}, {"measurement": "Activity", "setting": "Candida albicans", "result": "inactive"}, {"measurement": "logP", "setting": "[2]", "result": 3.74}]}, {"smiles": "CCOc1ccc2[nH]c(-c3ccccc3)c(C3=C(Br)C(=O)NC3=O)c2c1", "values": [{"measurement": "-logMIC", "setting": "Staphylococcus aureus", "result": 5.4}, {"measurement": "MIC", "setting": "Staphylococcus aureus", "result": 3.8, "unit": "µM"}, {"measurement": "-logMIC", "setting": "[1]", "result": 4.5}, {"measurement": "MIC", "setting": "[1]", "result": 30.4, "unit": "µM"}, {"measurement": "Activity", "setting": "Escherichia coli", "result": "inactive"}, {"measurement": "Activity", "setting": "Candida albicans", "result": "inactive"}, {"measurement": "logP", "setting": "[2]", "result": 2.77}]}, {"smiles": "CCc1ccc2[nH]c(-c3cccc(OC)c3)c(C3=C(Br)C(=O)NC3=O)c2c1", "values": [{"measurement": "-logMIC", "setting": "Staphylococcus aureus", "result": 6.3}, {"measurement": "MIC", "setting": "Staphylococcus aureus", "result": 0.5, "unit": "µM"}, {"measurement": "-logMIC", "setting": "[1]", "result": 5.4}, {"measurement": "MIC", "setting": "[1]", "result": 3.98, "unit": "µM"}, {"measurement": "Activity", "setting": "Escherichia coli", "result": "inactive"}, {"measurement": "Activity", "setting": "Candida albicans", "result": "inactive"}, {"measurement": "logP", "setting": "[2]", "result": 3.35}]}, {"smiles": "CCCc1ccc2[nH]c(-c3ccccc3)c(C3=C(Br)C(=O)NC3=O)c2c1", "values": [{"measurement": "-logMIC", "setting": "Staphylococcus aureus", "result": 6.3}, {"measurement": "MIC", "setting": "Staphylococcus aureus", "result": 0.5, "unit": "µM"}, {"measurement": "-logMIC", "setting": "[1]", "result": 5.4}, {"measurement": "MIC", "setting": "[1]", "result": 3.8, "unit": "µM"}, {"measurement": "Activity", "setting": "Escherichia coli", "result": "inactive"}, {"measurement": "Activity", "setting": "Candida albicans", "result": "inactive"}, {"measurement": "logP", "setting": "[2]", "result": 3.43}]}, {"smiles": "COc1ccc(-c2[nH]c3ccccc3c2C2=C(Br)C(=O)NC2=O)cc1", "values": [{"measurement": "-logMIC", "setting": "Staphylococcus aureus", "result": 6.5}, {"measurement": "MIC", "setting": "Staphylococcus aureus", "result": 0.32, "unit": "µM"}, {"measurement": "-logMIC", "setting": "[1]", "result": 4.8}, {"measurement": "MIC", "setting": "[1]", "result": 15.8, "unit": "µM"}, {"measurement": "Activity", "setting": "Escherichia coli", "result": "inactive"}, {"measurement": "Activity", "setting": "Candida albicans", "result": "inactive"}, {"measurement": "logP", "setting": "[2]", "result": 2.42}]}, {"smiles": "COc1cccc(-c2[nH]c3ccc(C)cc3c2C2=C(Br)C(=O)NC2=O)c1", "values": [{"measurement": "-logMIC", "setting": "Staphylococcus aureus", "result": 6.6}, {"measurement": "MIC", "setting": "Staphylococcus aureus", "result": 0.2, "unit": "µM"}, {"measurement": "-logMIC", "setting": "[1]", "result": 5.1}, {"measurement": "MIC", "setting": "[1]", "result": 7.94, "unit": "µM"}, {"measurement": "Activity", "setting": "Escherichia coli", "result": "inactive"}, {"measurement": "Activity", "setting": "Candida albicans", "result": "inactive"}, {"measurement": "logP", "setting": "[2]", "result": 3.12}]}, {"smiles": "CCCCc1ccc2[nH]c(-c3ccc(OC)cc3)c(C3=C(Br)C(=O)NC3=O)c2c1", "values": [{"measurement": "-logMIC", "setting": "Staphylococcus aureus", "result": 6.4}, {"measurement": "MIC", "setting": "Staphylococcus aureus", "result": 0.44, "unit": "µM"}, {"measurement": "-logMIC", "setting": "[1]", "result": 5.5}, {"measurement": "MIC", "setting": "[1]", "result": 3.4, "unit": "µM"}, {"measurement": "Activity", "setting": "Escherichia coli", "result": "inactive"}, {"measurement": "Activity", "setting": "Candida albicans", "result": "inactive"}, {"measurement": "logP", "setting": "[2]", "result": 3.83}]}, {"smiles": "COc1ccc(-c2[nH]c3c(C)cccc3c2C2=C(Br)C(=O)NC2=O)cc1", "values": [{"measurement": "-logMIC", "setting": "Staphylococcus aureus", "result": 5.7}, {"measurement": "MIC", "setting": "Staphylococcus aureus", "result": 2, "unit": "µM"}, {"measurement": "-logMIC", "setting": "[1]", "result": 4.5}, {"measurement": "MIC", "setting": "[1]", "result": 30.4, "unit": "µM"}, {"measurement": "Activity", "setting": "Escherichia coli", "result": "inactive"}, {"measurement": "Activity", "setting": "Candida albicans", "result": "inactive"}, {"measurement": "logP", "setting": "[2]", "result": 3.12}]}, {"smiles": "COc1cccc(-c2[nH]c3ccc(OC)cc3c2C2=C(Br)C(=O)NC2=O)c1", "values": [{"measurement": "-logMIC", "setting": "Staphylococcus aureus", "result": 5.7}, {"measurement": "MIC", "setting": "Staphylococcus aureus", "result": 1.9, "unit": "µM"}, {"measurement": "-logMIC", "setting": "[1]", "result": 4.8}, {"measurement": "MIC", "setting": "[1]", "result": 15.8, "unit": "µM"}, {"measurement": "Activity", "setting": "Escherichia coli", "result": "inactive"}, {"measurement": "Activity", "setting": "Candida albicans", "result": "inactive"}, {"measurement": "logP", "setting": "[2]", "result": 2.79}]}, {"smiles": "Cc1cccc(NC(=O)CCCc2[nH]c3ccccc3c2C2=C(Br)C(=O)NC2=O)c1", "values": [{"measurement": "-logMIC", "setting": "Staphylococcus aureus", "result": 6.1}, {"measurement": "MIC", "setting": "Staphylococcus aureus", "result": 0.79, "unit": "µM"}, {"measurement": "-logMIC", "setting": "[1]", "result": 4.6}, {"measurement": "MIC", "setting": "[1]", "result": 27, "unit": "µM"}, {"measurement": "Activity", "setting": "Escherichia coli", "result": "inactive"}, {"measurement": "Activity", "setting": "Candida albicans", "result": "inactive"}, {"measurement": "logP", "setting": "[2]", "result": 2.56}]}, {"smiles": "CCCOc1ccc2[nH]c(-c3ccccc3)c(C3=C(Br)C(=O)NC3=O)c2c1", "values": [{"measurement": "-logMIC", "setting": "Staphylococcus aureus", "result": 6}, {"measurement": "MIC", "setting": "Staphylococcus aureus", "result": 0.95, "unit": "µM"}, {"measurement": "-logMIC", "setting": "[1]", "result": 4.2}, {"measurement": "MIC", "setting": "[1]", "result": 58.8, "unit": "µM"}, {"measurement": "Activity", "setting": "Escherichia coli", "result": "inactive"}, {"measurement": "Activity", "setting": "Candida albicans", "result": "inactive"}, {"measurement": "logP", "setting": "[2]", "result": 3.16}]}, {"smiles": "O=C(CCc1[nH]c2ccccc2c1C1=C(Br)C(=O)NC1=O)Nc1ccccc1", "values": [{"measurement": "-logMIC", "setting": "Staphylococcus aureus", "result": 6.7}, {"measurement": "MIC", "setting": "Staphylococcus aureus", "result": 0.18, "unit": "µM"}, {"measurement": "-logMIC", "setting": "[1]", "result": 4.7}, {"measurement": "MIC", "setting": "[1]", "result": 21, "unit": "µM"}, {"measurement": "Activity", "setting": "Escherichia coli", "result": "inactive"}, {"measurement": "Activity", "setting": "Candida albicans", "result": "inactive"}, {"measurement": "logP", "setting": "[2]", "result": 2.42}]}, {"smiles": "O=C(CCCCCCc1[nH]c2ccccc2c1C1=C(Br)C(=O)NC1=O)Nc1ccccc1", "values": [{"measurement": "-logMIC", "setting": "Staphylococcus aureus", "result": 7}, {"measurement": "MIC", "setting": "Staphylococcus aureus", "result": 0.1, "unit": "µM"}, {"measurement": "-logMIC", "setting": "[1]", "result": 4.9}, {"measurement": "MIC", "setting": "[1]", "result": 12.6, "unit": "µM"}, {"measurement": "Activity", "setting": "Escherichia coli", "result": "inactive"}, {"measurement": "Activity", "setting": "Candida albicans", "result": "inactive"}, {"measurement": "logP", "setting": "[2]", "result": 2.85}]}, {"smiles": "O=C1NC(=O)C(c2c(-c3ccc(OCc4ccccc4)cc3)[nH]c3ccccc23)=C1Br", "values": [{"measurement": "-logMIC", "setting": "Staphylococcus aureus", "result": 6.7}, {"measurement": "MIC", "setting": "Staphylococcus aureus", "result": 0.21, "unit": "µM"}, {"measurement": "-logMIC", "setting": "[1]", "result": 4.6}, {"measurement": "MIC", "setting": "[1]", "result": 25.1, "unit": "µM"}, {"measurement": "Activity", "setting": "Escherichia coli", "result": "inactive"}, {"measurement": "Activity", "setting": "Candida albicans", "result": "inactive"}, {"measurement": "logP", "setting": "[2]", "result": 3.3}]}]}
